Holding throughout (experiment): radiometric kinase profiling (33 PanQinase)
Common to all, as to format: biochemical

For one test, the target named is T1, RPS6KB1 (Homo sapiens, UniProt P23443).
T1 construct: purchased ProQinase (33PanQinase Activity Assay)
The conditions noted are these: read-out: Inhibitory effect (%) RPS6KB1. An outline of the steps: (§1)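 Enzyme/substrate mixes were incubated with [γ-33P]-ATP and compound (added as a 0.1 μM solution in 10% DMSO) at 30 °C for 60 min, then stopped with H3PO4 and washed with NaCl. 33P incorporation was scintillation-counted, and residual activity (%) was normalized to untreated control and background.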

The next test deals with T2, SRPK1 (Homo sapiens, UniProt Q96SB4).
T2 construct: purchased ProQinase (33PanQinase Activity Assay)
The conditions noted are these: read-out: Inhibitory effect (%) SRPK1. An outline of the steps:
as §1

For a further test, the target named is T3, PDGFRA (Homo sapiens, UniProt P16234).
T3 construct: purchased ProQinase (33PanQinase Activity Assay)
T3 sequence (P16234 24-1089): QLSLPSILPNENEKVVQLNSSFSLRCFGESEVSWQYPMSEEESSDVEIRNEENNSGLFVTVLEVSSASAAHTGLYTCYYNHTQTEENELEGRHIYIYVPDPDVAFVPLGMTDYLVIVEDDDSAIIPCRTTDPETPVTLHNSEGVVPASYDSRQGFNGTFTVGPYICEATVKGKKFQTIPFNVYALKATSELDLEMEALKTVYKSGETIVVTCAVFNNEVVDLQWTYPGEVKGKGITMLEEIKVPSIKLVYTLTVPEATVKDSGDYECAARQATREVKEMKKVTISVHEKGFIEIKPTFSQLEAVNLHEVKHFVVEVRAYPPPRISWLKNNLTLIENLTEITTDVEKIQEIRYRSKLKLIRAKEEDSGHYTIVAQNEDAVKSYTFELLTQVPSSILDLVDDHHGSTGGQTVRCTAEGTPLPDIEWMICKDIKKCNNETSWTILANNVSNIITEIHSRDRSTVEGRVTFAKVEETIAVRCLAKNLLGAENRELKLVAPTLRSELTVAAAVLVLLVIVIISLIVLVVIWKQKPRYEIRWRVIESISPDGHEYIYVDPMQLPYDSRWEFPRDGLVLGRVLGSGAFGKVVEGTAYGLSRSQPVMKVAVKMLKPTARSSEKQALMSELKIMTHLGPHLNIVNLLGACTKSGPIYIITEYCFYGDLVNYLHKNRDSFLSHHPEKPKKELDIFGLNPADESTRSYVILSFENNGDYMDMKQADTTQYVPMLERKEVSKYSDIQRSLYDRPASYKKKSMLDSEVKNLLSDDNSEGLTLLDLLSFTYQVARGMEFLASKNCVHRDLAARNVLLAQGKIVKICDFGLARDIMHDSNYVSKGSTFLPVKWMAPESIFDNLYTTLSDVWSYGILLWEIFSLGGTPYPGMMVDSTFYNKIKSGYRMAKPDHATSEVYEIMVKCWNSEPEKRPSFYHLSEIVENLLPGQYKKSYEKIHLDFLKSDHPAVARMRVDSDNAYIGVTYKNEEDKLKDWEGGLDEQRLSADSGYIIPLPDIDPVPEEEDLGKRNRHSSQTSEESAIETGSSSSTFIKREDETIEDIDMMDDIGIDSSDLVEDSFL
The conditions noted are these: read-out: Inhibitory effect (%) PDGFRA. The method, boiled down:
as §1

The target of another test is T4, LIMK1 (Homo sapiens, UniProt P53667).
T4 construct: purchased ProQinase (33PanQinase Activity Assay)
Conditions: read-out: Inhibitory effect (%) LIMK1. An outline of the steps:
as §1

For the next test, the target named is T5, IKBKB (Homo sapiens, UniProt O14920).
T5 construct: purchased ProQinase (33PanQinase Activity Assay)
T5 sequence (O14920 1-756): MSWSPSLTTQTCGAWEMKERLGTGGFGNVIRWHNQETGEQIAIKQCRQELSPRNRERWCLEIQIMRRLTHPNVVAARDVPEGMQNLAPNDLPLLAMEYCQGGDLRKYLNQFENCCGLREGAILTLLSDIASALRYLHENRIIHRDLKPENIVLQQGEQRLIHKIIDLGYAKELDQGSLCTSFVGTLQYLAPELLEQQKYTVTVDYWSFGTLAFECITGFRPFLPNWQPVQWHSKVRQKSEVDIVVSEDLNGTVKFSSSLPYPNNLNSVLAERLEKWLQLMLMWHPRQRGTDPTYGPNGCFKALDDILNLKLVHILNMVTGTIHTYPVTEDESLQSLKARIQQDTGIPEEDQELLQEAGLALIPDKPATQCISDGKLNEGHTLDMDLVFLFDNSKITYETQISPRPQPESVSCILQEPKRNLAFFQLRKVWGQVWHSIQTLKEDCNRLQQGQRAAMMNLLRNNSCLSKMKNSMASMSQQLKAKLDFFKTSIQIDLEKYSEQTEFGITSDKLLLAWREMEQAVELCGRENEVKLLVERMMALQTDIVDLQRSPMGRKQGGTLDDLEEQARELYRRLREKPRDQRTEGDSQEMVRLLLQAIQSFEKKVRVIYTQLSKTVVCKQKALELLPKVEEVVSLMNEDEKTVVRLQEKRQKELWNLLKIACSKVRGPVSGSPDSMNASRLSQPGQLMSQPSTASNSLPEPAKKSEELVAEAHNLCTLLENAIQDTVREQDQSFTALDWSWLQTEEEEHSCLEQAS
The conditions noted are these: read-out: Inhibitory effect (%) IKBKB. The method, boiled down: as §1

The target of the next test is T6, AURKB (Homo sapiens, UniProt Q96GD4).
T6 construct: purchased Proqinase, Germany
The conditions noted are these: read-out: Inhibitory effect (%) AURKB. An outline of the steps: as §1

In another test the target is T7, RET (Homo sapiens, UniProt P07949).
T7 construct: purchased ProQinase (33PanQinase Activity Assay)
T7 sequence (P07949 29-1114): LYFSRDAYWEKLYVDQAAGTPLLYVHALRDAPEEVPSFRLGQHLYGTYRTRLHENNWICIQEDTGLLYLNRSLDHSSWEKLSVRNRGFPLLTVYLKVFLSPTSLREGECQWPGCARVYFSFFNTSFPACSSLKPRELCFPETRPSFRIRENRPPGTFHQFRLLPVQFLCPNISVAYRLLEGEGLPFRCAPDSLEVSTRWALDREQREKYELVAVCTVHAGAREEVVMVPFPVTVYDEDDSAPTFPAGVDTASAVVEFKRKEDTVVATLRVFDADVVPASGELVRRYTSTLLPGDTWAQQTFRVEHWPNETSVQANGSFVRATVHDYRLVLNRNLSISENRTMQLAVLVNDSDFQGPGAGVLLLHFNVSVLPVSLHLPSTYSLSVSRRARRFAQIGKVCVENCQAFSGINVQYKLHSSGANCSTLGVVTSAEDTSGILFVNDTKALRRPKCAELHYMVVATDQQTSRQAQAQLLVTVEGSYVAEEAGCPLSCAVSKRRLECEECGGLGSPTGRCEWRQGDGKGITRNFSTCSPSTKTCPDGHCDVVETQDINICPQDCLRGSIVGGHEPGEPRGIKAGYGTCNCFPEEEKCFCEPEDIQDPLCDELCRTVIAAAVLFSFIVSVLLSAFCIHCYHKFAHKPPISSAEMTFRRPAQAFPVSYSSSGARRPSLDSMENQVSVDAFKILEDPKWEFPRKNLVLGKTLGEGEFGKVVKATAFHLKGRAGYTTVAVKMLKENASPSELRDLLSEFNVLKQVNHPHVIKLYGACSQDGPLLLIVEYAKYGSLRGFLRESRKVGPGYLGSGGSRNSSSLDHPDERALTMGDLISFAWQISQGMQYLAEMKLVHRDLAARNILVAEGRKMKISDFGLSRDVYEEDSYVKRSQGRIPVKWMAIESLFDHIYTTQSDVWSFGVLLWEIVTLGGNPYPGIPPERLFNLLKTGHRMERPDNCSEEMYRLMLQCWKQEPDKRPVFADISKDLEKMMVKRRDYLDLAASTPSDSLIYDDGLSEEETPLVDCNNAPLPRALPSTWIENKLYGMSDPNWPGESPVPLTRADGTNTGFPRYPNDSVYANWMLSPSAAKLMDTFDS
The conditions noted are these: read-out: Inhibitory effect (%) RET. An outline of the steps: as §1

In the next test the target is T8, CLK2 (Homo sapiens, UniProt P49760).
T8 construct: purchased Proqinase, Germany
The conditions noted are these: read-out: Inhibitory effect (%) CLK2. An outline of the steps:
as §1

A further test has as its target T9, PRKCB1_II (Homo sapiens, UniProt P05771).
T9 construct: purchased ProQinase (33PanQinase Activity Assay)
Conditions: read-out: Inhibitory effect (%) PRKCB1_II. An outline of the steps:
as §1

The target in the next test is T10, CHEK2 (Homo sapiens, UniProt O96017).
T10 construct: purchased Proqinase, Germany
T10 sequence (O96017 whole entry): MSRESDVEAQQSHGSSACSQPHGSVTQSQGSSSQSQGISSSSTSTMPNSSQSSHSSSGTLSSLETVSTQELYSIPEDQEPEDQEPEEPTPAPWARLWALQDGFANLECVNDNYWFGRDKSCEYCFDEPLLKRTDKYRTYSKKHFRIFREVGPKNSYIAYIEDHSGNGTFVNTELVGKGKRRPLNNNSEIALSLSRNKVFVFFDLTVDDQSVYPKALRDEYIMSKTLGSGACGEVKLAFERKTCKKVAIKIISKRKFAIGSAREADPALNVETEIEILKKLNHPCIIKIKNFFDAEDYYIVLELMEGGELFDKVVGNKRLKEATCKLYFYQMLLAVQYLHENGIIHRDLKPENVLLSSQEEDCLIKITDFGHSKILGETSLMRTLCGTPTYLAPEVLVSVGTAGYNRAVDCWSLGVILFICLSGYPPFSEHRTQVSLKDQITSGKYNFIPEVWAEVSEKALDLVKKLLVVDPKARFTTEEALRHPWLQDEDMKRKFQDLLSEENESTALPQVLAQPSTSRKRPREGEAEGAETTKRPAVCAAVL
The conditions noted are these: read-out: Inhibitory effect (%) CHEK2. An outline of the steps:
as §1

In another test the target is T11, CDK8_cyclinC (Homo sapiens, UniProt P49336).
T11 construct: purchased Proqinase, Germany
The conditions noted are these: read-out: Inhibitory effect (%) CDK8_cyclinC. An outline of the steps:
as §1

For a further test, the target named is T12, FYN (Homo sapiens, UniProt P06241).
T12 construct: purchased ProQinase (33PanQinase Activity Assay)
Conditions: read-out: Inhibitory effect (%) FYN. The method, boiled down:
as §1

The next test concerns the target T13, GRK6 (Homo sapiens, UniProt P43250).
T13 construct: purchased ProQinase (33PanQinase Activity Assay)
The conditions noted are these: read-out: Inhibitory effect (%) GRK6. An outline of the steps: as §1

Another test deals with T14, ROCK2 (Homo sapiens, UniProt O75116).
T14 construct: purchased ProQinase (33PanQinase Activity Assay)
T14 sequence (O75116 whole entry): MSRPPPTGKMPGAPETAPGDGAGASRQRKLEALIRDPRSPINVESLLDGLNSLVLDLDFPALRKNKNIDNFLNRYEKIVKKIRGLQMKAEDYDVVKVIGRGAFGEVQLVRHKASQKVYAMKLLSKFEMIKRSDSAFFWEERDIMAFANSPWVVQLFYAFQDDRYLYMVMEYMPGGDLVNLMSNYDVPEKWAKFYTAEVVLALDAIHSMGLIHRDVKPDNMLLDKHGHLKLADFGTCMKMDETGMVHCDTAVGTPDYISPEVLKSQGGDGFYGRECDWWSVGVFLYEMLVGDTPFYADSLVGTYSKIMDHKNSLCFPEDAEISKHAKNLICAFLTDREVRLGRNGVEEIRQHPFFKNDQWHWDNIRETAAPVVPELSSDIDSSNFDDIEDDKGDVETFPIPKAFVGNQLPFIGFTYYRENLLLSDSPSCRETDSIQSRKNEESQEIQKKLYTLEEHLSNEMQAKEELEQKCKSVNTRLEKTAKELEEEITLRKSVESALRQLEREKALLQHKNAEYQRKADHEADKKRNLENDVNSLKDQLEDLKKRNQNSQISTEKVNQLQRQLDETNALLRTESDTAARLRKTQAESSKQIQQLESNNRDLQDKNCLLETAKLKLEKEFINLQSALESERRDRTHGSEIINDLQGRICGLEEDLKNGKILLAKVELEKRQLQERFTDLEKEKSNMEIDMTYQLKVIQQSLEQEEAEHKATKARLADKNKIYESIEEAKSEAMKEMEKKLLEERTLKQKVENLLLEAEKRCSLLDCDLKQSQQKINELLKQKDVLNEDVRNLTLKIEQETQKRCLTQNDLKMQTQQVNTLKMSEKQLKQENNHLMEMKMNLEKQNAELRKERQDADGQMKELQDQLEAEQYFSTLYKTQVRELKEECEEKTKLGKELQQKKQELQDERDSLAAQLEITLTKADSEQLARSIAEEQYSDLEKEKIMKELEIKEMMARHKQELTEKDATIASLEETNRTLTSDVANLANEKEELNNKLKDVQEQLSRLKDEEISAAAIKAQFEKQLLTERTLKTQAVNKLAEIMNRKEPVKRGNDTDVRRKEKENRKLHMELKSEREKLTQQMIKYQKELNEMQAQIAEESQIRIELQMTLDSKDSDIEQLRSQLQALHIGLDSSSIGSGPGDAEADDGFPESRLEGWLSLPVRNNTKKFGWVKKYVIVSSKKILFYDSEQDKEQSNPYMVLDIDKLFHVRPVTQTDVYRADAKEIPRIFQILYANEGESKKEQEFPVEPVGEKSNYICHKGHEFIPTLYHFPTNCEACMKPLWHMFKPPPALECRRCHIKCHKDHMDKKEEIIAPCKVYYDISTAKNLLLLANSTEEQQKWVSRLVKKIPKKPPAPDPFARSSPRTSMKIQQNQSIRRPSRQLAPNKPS
Conditions: read-out: Inhibitory effect (%) ROCK2. The method, boiled down:
as §1

For a further test, the target named is T15, MAP3K7 (Homo sapiens, UniProt O43318).
T15 construct: purchased ProQinase (33PanQinase Activity Assay)
T15 sequence (O43318 1-303 limits assumed): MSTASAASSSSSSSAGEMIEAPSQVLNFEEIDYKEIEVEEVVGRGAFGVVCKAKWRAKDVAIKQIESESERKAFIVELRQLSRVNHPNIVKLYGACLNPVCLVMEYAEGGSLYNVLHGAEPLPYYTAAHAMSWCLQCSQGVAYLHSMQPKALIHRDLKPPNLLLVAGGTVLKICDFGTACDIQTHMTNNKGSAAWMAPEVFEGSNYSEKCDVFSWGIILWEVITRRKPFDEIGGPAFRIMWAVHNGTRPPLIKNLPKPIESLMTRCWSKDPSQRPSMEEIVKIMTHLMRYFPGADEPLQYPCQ
Conditions: read-out: Inhibitory effect (%) MAP3K7. An outline of the steps:
as §1

A further test deals with T16, MAP3K8 (Homo sapiens, UniProt P41279).
T16 construct: purchased ProQinase (33PanQinase Activity Assay)
T16 sequence (P41279 whole entry): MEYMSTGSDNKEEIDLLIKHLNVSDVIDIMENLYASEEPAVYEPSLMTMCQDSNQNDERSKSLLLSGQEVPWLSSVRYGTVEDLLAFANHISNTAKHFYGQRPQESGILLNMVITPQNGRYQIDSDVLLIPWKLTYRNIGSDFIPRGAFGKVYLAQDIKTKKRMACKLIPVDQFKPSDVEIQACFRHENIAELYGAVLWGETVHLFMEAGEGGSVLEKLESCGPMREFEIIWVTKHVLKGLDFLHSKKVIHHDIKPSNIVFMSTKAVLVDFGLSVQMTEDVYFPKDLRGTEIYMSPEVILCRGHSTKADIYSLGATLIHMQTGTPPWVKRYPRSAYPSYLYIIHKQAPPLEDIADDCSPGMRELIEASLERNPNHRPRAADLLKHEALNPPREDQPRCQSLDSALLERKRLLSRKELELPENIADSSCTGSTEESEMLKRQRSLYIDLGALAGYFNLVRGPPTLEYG
The conditions noted are these: read-out: Inhibitory effect (%) MAP3K8. An outline of the steps:
as §1

SMILES strings stand for the structures.

T1 sequence (P23443 whole entry): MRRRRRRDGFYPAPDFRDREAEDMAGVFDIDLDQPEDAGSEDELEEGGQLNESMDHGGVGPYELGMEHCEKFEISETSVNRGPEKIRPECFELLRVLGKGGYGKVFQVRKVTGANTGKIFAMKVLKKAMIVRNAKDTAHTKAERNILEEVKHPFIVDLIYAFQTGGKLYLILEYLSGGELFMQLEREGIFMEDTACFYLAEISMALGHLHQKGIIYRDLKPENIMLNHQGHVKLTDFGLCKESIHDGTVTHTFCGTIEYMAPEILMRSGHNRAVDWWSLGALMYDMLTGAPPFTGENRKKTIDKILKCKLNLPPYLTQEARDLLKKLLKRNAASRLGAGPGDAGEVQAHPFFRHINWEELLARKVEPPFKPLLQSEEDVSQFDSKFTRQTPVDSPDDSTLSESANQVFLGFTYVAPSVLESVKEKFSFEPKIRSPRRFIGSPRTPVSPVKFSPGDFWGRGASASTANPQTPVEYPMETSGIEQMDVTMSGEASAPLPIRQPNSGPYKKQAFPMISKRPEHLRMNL

Regarding `c1ccc2c(-c3cnn4cc(-c5ccc(N6CCNCC6)cc5)cnc34)ccnc2c1` [LDN-193189, reference compound], the inhibition at 0.1 µM was 13% at RPS6KB1; -16.5% at SRPK1; 3.63% at PDGFRA; 8.92% at LIMK1; 1.34% at IKBKB; 3.93% on AURKB. Further, the inhibition at 0.1 µM was 10.8% on RET; 34.2% at CLK2; 1.8% on PRKCB1_II; -0.88% on CHEK2; -1.99% at CDK8_cyclinC; 28.1% at FYN. In addition, the inhibition at 0.1 µM on GRK6 was -1.81%; at ROCK2, 13.1%; on MAP3K7 it was 7.07%; on MAP3K8 it was -10.3%.

Consider `CN1CCc2cccc(c2)Nc2nccc(n2)N2CCCc3cc(ccc32)C1` [OD16], for which the inhibition at 0.1 µM on RPS6KB1 was -15%; at SRPK1, -24.9%; at PDGFRA it was -16%; at LIMK1, 30.3%; on IKBKB it was 1.32%; at AURKB it was 4.48%. Also, the inhibition at 0.1 µM at RET was -29.1%; at CLK2, -10%; on PRKCB1_II, 15.9%; on CHEK2, 7.12%; on CDK8_cyclinC it was -16.6%; on FYN, -31%. In addition, the inhibition at 0.1 µM at GRK6 was -2.14%; at ROCK2, 42.6%; at MAP3K7, -6.98%; on MAP3K8, -16.9%.

Take `CN1CCC(=O)NCCNc2ccn3ncc(c3n2)-c2cccc(c2)C1` [OD29]: the inhibition at 0.1 µM is -3.52% at RPS6KB1; 21.5% at SRPK1; -9.93% on PDGFRA; 1.15% on LIMK1; -9.1% on IKBKB; -11.2% on AURKB. Also, the inhibition at 0.1 µM is 27.1% on RET; 7.62% at CLK2; 3.7% on PRKCB1_II; -0.87% at CHEK2; -9.32% on CDK8_cyclinC; 24.6% on FYN. In addition, the inhibition at 0.1 µM on GRK6 is 0.04%; on ROCK2 it was -0.26%; at MAP3K7 it was 11.4%; on MAP3K8, -5.03%.

Source of the values: paper PMC8231556, “Inhibiting Endothelial Cell Function in Normal and Tumor Angiogenesis Using BMP Type I Receptor Macrocyclic Kinase Inhibitors” (Cancers, 2021).
